Measurements: patent US7928107B2, “Quinazolines useful as modulators of ion channels” (Vertex Pharmaceuticals Incorporated, priority 2004, dated 2011)

Target: NaV 1.8 channel (Homo sapiens, UniProt Q9Y5Y9)
Assay: Activity against NaV 1.8 channel (optical membrane potential assay)
Type: cell-based
In short: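 FRET membrane-potential assay (coumarin CC2-DMPE donor, oxonol DiSBAC2(3) acceptor plus veratridine) on VIPR; compound added with oxonol for 20–30 min before Na+ add-back stimulation. Activity from background-subtracted 460/580 nm ratio change (baseline 2–7 s, response 15–24 s) relative to tetracaine positive and drug-free negative controls.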

NaV 1.8 channel, sequence (Q9Y5Y9 whole entry): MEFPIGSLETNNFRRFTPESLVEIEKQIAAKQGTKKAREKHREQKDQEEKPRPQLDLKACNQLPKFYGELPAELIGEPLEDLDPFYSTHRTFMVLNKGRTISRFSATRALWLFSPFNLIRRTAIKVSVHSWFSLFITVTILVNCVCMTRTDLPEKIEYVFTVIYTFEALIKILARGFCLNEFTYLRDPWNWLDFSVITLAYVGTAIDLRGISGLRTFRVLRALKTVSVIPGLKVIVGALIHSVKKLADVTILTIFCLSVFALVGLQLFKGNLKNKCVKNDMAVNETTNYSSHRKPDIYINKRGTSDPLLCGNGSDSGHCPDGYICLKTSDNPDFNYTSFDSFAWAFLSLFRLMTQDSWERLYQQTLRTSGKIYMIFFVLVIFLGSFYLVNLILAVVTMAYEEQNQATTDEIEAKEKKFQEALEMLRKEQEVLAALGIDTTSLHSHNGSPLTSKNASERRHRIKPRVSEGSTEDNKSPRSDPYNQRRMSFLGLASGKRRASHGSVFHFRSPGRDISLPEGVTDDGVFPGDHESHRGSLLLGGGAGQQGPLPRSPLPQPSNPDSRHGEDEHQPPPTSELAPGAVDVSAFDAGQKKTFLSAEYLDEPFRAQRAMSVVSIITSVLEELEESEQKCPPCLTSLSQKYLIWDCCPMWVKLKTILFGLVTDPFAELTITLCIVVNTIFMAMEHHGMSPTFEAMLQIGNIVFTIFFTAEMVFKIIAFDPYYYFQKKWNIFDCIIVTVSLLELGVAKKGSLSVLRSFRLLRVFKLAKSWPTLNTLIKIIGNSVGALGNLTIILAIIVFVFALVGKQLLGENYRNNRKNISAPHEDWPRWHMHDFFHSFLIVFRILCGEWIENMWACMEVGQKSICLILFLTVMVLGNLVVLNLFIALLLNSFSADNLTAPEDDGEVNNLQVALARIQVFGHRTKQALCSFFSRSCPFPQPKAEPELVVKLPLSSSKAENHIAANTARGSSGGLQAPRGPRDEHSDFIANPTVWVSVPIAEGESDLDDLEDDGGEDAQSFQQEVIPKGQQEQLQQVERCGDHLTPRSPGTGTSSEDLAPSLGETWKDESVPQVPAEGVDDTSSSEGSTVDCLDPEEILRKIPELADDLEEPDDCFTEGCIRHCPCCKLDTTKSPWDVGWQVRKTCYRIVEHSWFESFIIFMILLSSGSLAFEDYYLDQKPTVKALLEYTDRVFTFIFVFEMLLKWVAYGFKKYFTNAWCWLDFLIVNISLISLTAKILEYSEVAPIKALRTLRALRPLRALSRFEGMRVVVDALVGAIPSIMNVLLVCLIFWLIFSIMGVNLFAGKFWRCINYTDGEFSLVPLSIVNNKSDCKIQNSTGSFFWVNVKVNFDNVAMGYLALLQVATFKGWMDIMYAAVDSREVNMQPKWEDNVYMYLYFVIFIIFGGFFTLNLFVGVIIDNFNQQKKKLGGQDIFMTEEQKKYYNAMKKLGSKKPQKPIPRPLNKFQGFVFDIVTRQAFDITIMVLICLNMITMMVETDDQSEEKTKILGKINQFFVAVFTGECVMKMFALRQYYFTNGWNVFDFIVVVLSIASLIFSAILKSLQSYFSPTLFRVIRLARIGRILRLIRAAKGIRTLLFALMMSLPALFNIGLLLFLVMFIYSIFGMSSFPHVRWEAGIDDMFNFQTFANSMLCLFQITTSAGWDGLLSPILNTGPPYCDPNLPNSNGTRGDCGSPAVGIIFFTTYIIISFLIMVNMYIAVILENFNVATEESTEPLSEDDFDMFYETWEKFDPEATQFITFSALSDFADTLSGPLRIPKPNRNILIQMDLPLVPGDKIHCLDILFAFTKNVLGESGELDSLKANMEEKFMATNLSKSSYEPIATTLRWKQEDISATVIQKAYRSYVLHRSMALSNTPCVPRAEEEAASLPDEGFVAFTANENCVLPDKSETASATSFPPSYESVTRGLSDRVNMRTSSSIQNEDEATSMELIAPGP

SMILES	IC50 [nM]
Cc1ccc2c(N3CC[C@H](CNC(=O)OCc4ccccc4)C3)nc(-c3ccccc3O)nc2c1 [Example 362, Benzyl ((R)-1-(2-(2-hydroxyphenyl)-7-methylquinazolin-4-yl)pyrrolidin-3-yl)methylcarbamate]	> 10000
Cc1ccc2c(N3CC[C@@H](CNC(=O)OCc4ccccc4)C3)nc(-c3ccccc3O)nc2c1 [Example 363, Benzyl ((S)-1-(2-(2-hydroxyphenyl)-7-methylquinazolin-4-yl)pyrrolidin-3-yl)methylcarbamate]	2000 to 10000
COCCOC(=O)NC[C@@H]1CCN(c2nc(-c3ccccc3O)nc3cc(C)ccc23)C1 [Example 366, 2-Methoxyethyl ((S)-1-(2-(2-hydroxyphenyl)-7-methylquinazolin-4-yl)pyrrolidin-3-yl)methylcarbamate]	2000 to 10000
Cc1ccc2c(N3CC[C@@H](CNC(=O)OC(C)C)C3)nc(-c3ccccc3O)nc2c1 [Example 368, Isopropyl ((S)-1-(2-(2-hydroxyphenyl)-7-methylquinazolin-4-yl)pyrrolidin-3-yl)methylcarbamate]	2000 to 10000
COCCOC(=O)NC[C@@H]1CCN(c2nc(-c3c(O)cccc3F)nc3cc(C)ccc23)C1 [Example 373, 2-Methoxyethyl ((S)-1-(2-(2-fluoro-6-hydroxyphenyl)-7-methylquinazolin-4-yl)pyrrolidin-3-yl)methylcarbamate]	2000 to 10000
CCCOC(=O)NC[C@@H]1CCN(c2nc(-c3ccccc3O)nc3ccc(F)cc23)C1 [Example 374, Propyl ((S)-1-(6-fluoro-2-(2-hydroxyphenyl)quinazolin-4-yl)pyrrolidin-3-yl)methylcarbamate]	> 10000
CC(C)(C)COC(=O)NC[C@@H]1CCN(c2nc(-c3ccccc3O)nc3ccc(F)cc23)C1 [Example 375, Neopentyl ((S)-1-(6-fluoro-2-(2-hydroxyphenyl)quinazolin-4-yl)pyrrolidin-3-yl)methylcarbamate]	> 10000

Continued, values first:

IC50 [nM]	SMILES
< 2000	CCOC(=O)NC[C@@H]1CCN(c2nc(-c3ccccc3O)nc3cc(C)ccc23)C1 [Example 364, Ethyl ((S)-1-(2-(2-hydroxyphenyl)-7-methylquinazolin-4-yl)pyrrolidin-3-yl)methylcarbamate]
< 2000	Cc1ccc2c(N3CC[C@@H](CNC(=O)OCC(C)C)C3)nc(-c3ccccc3O)nc2c1 [Example 365, Isobutyl ((S)-1-(2-(2-hydroxyphenyl)-7-methylquinazolin-4-yl)pyrrolidin-3-yl)methylcarbamate]
< 2000	CCCOC(=O)NC[C@@H]1CCN(c2nc(-c3ccccc3O)nc3cc(C)ccc23)C1 [Example 367, Propyl ((S)-1-(2-(2-hydroxyphenyl)-7-methylquinazolin-4-yl)pyrrolidin-3-yl)methylcarbamate]
< 2000	Cc1ccc2c(N3CC[C@@H](CNC(=O)OCC(C)(C)C)C3)nc(-c3ccccc3O)nc2c1 [Example 369, Neopentyl ((S)-1-(2-(2-hydroxyphenyl)-7-methylquinazolin-4-yl)pyrrolidin-3-yl)methylcarbamate]
< 2000	Cc1ccc2c(N3CC[C@H](NC(=O)OC(C)(C)C)C3)nc(-c3ccccc3O)nc2c1 [Example 370, tert-Butyl (S)-1-(2-(2-hydroxyphenyl)-7-methylquinazolin-4-yl)pyrrolidin-3-ylcarbamate]
< 2000	Cc1ccc2c(N3CC[C@@H](CNC(=O)OC(C)C)C3)nc(-c3c(O)cccc3F)nc2c1 [Example 371, Isopropyl ((S)-1-(2-(2-fluoro-6-hydroxyphenyl)-7-methylquinazolin-4-yl)pyrrolidin-3-yl)methylcarbamate]
< 2000	Cc1ccc2c(N3CC[C@@H](CNC(=O)OCC(C)C)C3)nc(-c3c(O)cccc3F)nc2c1 [Example 372, Isobutyl ((S)-1-(2-(2-fluoro-6-hydroxyphenyl)-7-methylquinazolin-4-yl)pyrrolidin-3-yl)methylcarbamate]
